Results on two molecules are retold here after ChEMBL document CHEMBL1141777, “Norlanostane triterpenoidal saponins from the marine sponge melophlussarassinorum” (2005).

In one assay the test system is Escherichia coli. Description: Antimicrobial activity against Escherichia coli DSM 10290. The class given is functional, organism-based.
The subject of assay [1] is Bacillus subtilis. Description: Antimicrobial activity against Bacillus subtilis DSM 2109. The format is functional, organism-based.
Assay [2] deals with Saccharomyces cerevisiae. Nature of the assay: Antimicrobial activity against Saccharomyces cerevisiae. The class given is functional, organism-based.
The test system of assay [3] is Saccharomyces cerevisiae. Description: Antimicrobial activity against Saccharomyces cerevisiae at 10 ug after 24 hrs by agar diffusion assay. The class given is functional. To be noted: read-out: IZ. On the technique in general: Agar diffusion results depend on both activity and mobility in agar.
Assay [4] concerns Bacillus subtilis. Nature of the assay: Antimicrobial activity against Bacillus subtilis DSM 2109 at 10 ug after 24 hrs by agar diffusion assay. The class given is functional. To be noted: DSM 2109, 24 h, read-out: IZ.

The structures appear in SMILES notation. Active and inactive are the calls of the source. The calls are words filed in the database; no cut-off is given here.

On to `CC(=O)N[C@H]1[C@H](O[C@@H]2CO[C@@H](O[C@H]3CC[C@]4(C)C5=C(CC[C@H]4C3(C)C)[C@@H]3CC[C@H]([C@H](C)CC(=O)C=C(C)C)[C@@]3(C)CC5)[C@H](O[C@@H]3O[C@H](CO[C@@H]4O[C@H](CO)[C@@H](O)[C@H](O)[C@H]4O[C@@H]4O[C@H](CO)[C@@H](O)[C@H](O)[C@H]4O)[C@@H](O)[C@H](O)[C@H]3NC(C)=O)[C@H]2O)O[C@H](CO)[C@H](O)[C@@H]1O` [SARASINOSIDE A1], for which the result in the assay with Escherichia coli and with Bacillus subtilis [1] was inactive. Moreover, the outcome in the assay on Saccharomyces cerevisiae [2] was Active. Also, in the assay on Saccharomyces cerevisiae [3], the zone of inhibition at 10 µg/disc was 10 mm.
With `CC(=O)N[C@H]1[C@H](O[C@@H]2CO[C@@H](O[C@H]3CC[C@]4(C)C5=C(CC[C@H]4C3(C)C)[C@@H]3CC[C@H]([C@H](C)CC(=O)CC(C)(C)O)[C@@]3(C)CC5)[C@H](O[C@@H]3O[C@H](CO[C@@H]4O[C@H](CO)[C@@H](O)[C@H](O)[C@H]4O[C@@H]4O[C@H](CO)[C@@H](O)[C@H](O)[C@H]4O)[C@@H](O)[C@H](O)[C@H]3NC(C)=O)[C@H]2O)O[C@H](CO)[C@H](O)[C@@H]1O` [SARASINOSIDE J], the zone of inhibition at 10 µg/disc with Bacillus subtilis [4] came to 9 mm; in the assay on Saccharomyces cerevisiae [3], 13 mm. Also, the result with Saccharomyces cerevisiae [2] was Active.
